Key:
[1] = target: T1, mouse TLR9 (Mus musculus, UniProt Q9EQU3); assay: Mouse TLR9 reporter gene assay (NF-kB luciferase, HEK293); format: cell-based; conditions: CpG1826 100 nM
T1 construct: host or cells: HEK293 (293-mTLR9)
T1 sequence (Q9EQU3 26-1032): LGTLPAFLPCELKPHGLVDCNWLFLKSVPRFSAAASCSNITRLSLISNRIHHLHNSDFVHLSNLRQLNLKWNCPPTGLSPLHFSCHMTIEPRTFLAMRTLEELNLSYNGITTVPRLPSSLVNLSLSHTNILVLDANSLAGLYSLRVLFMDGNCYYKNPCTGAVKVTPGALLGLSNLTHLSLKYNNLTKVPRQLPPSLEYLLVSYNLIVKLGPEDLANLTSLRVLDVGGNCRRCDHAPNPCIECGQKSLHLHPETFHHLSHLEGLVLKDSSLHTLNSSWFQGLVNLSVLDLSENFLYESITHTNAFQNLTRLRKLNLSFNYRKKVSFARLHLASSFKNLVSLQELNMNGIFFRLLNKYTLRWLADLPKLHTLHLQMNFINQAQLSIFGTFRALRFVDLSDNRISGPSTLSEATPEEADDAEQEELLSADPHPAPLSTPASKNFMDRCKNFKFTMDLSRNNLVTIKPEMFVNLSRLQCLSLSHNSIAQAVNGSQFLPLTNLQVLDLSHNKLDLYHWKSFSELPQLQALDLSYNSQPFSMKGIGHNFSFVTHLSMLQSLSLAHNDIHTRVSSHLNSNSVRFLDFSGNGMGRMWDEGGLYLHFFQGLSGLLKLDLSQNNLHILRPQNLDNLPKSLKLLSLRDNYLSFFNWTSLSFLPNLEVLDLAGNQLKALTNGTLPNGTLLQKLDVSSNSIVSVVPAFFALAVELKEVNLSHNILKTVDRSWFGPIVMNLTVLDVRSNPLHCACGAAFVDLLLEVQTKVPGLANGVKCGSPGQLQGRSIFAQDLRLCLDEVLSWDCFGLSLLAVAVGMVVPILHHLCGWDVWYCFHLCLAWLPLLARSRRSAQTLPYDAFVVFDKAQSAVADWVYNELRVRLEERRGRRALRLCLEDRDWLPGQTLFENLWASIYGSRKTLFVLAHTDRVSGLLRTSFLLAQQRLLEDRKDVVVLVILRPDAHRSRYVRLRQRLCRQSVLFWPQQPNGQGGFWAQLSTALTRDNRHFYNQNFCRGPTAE
Procedure: Compounds were dissolved in dimethyl sulfoxide. The day before transfection, mouse TLR7 genestably-expressing HE293 cell line (293XL-mTLR7 cell, InvivoGen, USA) and mouse TLR9 genestably-expressing HEK293 cell line (293-mTLR9 cell, InvivoGen) were seeded in collagen-coated 6-well plate (AGC techno glass) at 3 × 10^5 cells/well in DMEM (GIBCO) with 10% fetal bovine serum (GIBCO), and 10 μg ml^−1 Blastcidin S HCl (GIBCO) and incubated at 37 °C in 5% CO2. The plates were incubated over-night and then cotransfected with 1 μg (mouse TLR7) or 0.3 μg (mouse TLR9) of pNF-kB-Luciferase reporter in a 10:1 ratio with 4 μl of FuGene6 transfection reagent (Promega corporation, USA) following the manufacturer’s instructions. The plates were incubated 24 h. The cells re-seeded into 96-well plate (AGC techno glass) at 2 × 10^4 cells/well in DMEM (GIBCO) with 10% fetal bovine serum (GIBCO), and 10 μg ml^−1 Blastcidin S HCl (GIBCO) and then inhibition with various concentrations of compound. HCQ (mouse TLR7/9, Acros Organics, United Kingdom) was used as positive control. After 30 min, R848 (mouse TLR7/8 ligand) or CpG1826 (mouse TLR9 ligand, Hokkaido System Science Co., Ltd.) added to each well, wherein each final concentration were adjusted to 200 nM R848 (mouse TLR7) or 100 nM CpG1826 (mouse TLR9). The plates were then incubated an additional 6 h at 37 °C in 5% CO2, and then the luciferase activity was measured as activation of mouse TLR7 and 9. The luciferase activity was evaluated as follows: Bright-GloTM Luciferase Assay System (Promega) was added to the incubated sample (100 μl/well); after 2 min, the luminescence intensity of each sample was measured with a luminometer (Envision).

[2] = system: TLR7; assay: Glutaraldehyde crosslinking assay of ligand-induced TLR7 dimerization; format: biochemical, Monkey (Macaca mulatta); conditions: for ligand-induced TLR7 dimerization: neutral or acidic pH
Procedure: The recombinant TLR7 proteins expressed in Drosophila S2 cells (Thermo Fisher Scientific) using Monkey (Macaca mulatta) TLR7 extracellular domain expression construct with N167Q, N399Q, N488Q and N799Q mutations and cleavable Z-loop and C-terminal protein A tag were prepared and were stored in a buffer containing 10 mM Tris-HCl pH 7.5 and 150 mM NaCl at concentrations of 10–15 mg ml^−1. Briefly, the purification steps included IgG affinity purification, the Z-loop and the protein A tag cleavage, and gel-filtration chromatography. Glycan-trimmed TLR7 proteins, expressed in the presence of 1.5 mg l^−1 kifunensine (Glycosyn) and treated by Endo Hf (New England Biolabs) were used for crystallization. Glycan-untrimmed proteins were used in ITC analysis, crosslinking assay, negative-staining EM and cryo-EM (200 kV microscopes) analyses. Glycan-trimmed TLR7 proteins with partially-uncleaved protein A tag were used for cryo-EM analysis using Tatan Krios (Supplementary Fig. 11).
For glutaraldehyde crosslinking assay (Fig. 2b), proteins were buffer exchanged into a buffer containing 10 mM HEPES-NaOH, pH 8.0, 150 mM NaCl and were concentrated to ~13 mg/ml using Amicon Ultra devices (Merck). Protein concentrations were adjusted to 25 µM using buffers containing 10 mM HEPES-NaOH, pH 7.0, 150 mM NaCl (for neutral condition) or 50 mM citrate-NaOH pH 5.0, 150 mM NaCl (for acidic condition). Cpd-3, Cpd-6 or Cpd-7 were added to final concentrations of 100 or 1000 µM. The reactions were started by adding glutaraldehyde (Wako) to a final concentration of 5 mM (for neutral condition) or 20 mM (for acidic condition), incubated at ambient temperature for 25 min and quenched by adding Tris-HCl pH 7.5 to a final concentration of 100 mM. Crosslinked samples were analyzed by non-reducing SDS-PAGE. Quantitative analysis of the SDS-PAGE gel image was performed with Image-J.

[3] = pH 5.0, ligand + (100 or 1000 µM used)
[4] = pH 5.0, ligand ++ (100 or 1000 µM used)
[5] = pH 7.0, ligand + (100 or 1000 µM used)
[6] = pH 7.0, ligand ++ (100 or 1000 µM used)

SMILES | mouse TLR9 activity, reporter signal ([1]; compound 0.0001 nM (as headed)) | mouse TLR9 activity, reporter signal ([1]; compound 0.001 nM (as headed)) | mouse TLR9 activity, reporter signal ([1]; compound 0.003 nM (as headed)) | mouse TLR9 activity, reporter signal ([1]; compound 0.01 nM (as headed)) | mouse TLR9 activity, reporter signal ([1]; compound 0.03 nM (as headed)) | mouse TLR9 activity, reporter signal ([1]; compound 0.1 nM (as headed)) | mouse TLR9 activity, reporter signal ([1]; compound 0.3 nM (as headed)) | mouse TLR9 activity, reporter signal ([1]; compound 1 nM (as headed)) | mouse TLR9 activity, reporter signal ([1]; compound 3 nM (as headed)) | mouse TLR9 activity, reporter signal ([1]; compound 10 nM (as headed)) | mouse TLR9 activity, reporter signal ([1]; compound 30 nM (as headed)) | mouse TLR9 activity, reporter signal ([1]; compound 100 nM (as headed)) | ligand-induced TLR7 dimerization [2] | Band intensity Dimer [2, 3] | Band intensity Monomer [2, 3] | Band intensity Dimer [2, 4] | Band intensity Monomer [2, 4] | Band intensity Dimer [2, 5] | Band intensity Monomer [2, 5] | Band intensity Dimer [2, 6] | other results
CCN(CCO)CCCC(C)Nc1ccnc2cc(Cl)ccc12 (stereo not drawn) [HCQ, hydroxychloroquine, reference compound] | 670258 | 691508 | 691964 | 727784 | 642512 | 455236 | 212962 | 48988 | 7184 | 3474 | 3862 | 0 |  |  |  |  |  |  |  |  | 
CCOc1nc(N)c2nc(-c3cncc(F)c3)n(Cc3ccc(CN4C[C@@H]5C[C@H]4CN5C)cc3)c2n1 [Cpd-6] |  |  |  |  |  |  |  |  |  |  |  |  | increased only in acidic conditions | 8170.97 | 16240 | 8032.26 | 12976 | 10536.9 | 14418 | 14285.1 | Band intensity Monomer [2, 6]: 11832.4
CCOc1nc(C)c2nc(-c3cncc(F)c3)n(Cc3ccc(CN4C[C@@H]5C[C@H]4CN5C)cc3)c2n1 [Cpd-7] | 670258 | 769686 | 682550 | 681778 | 778720 | 762582 | 758536 | 750674 | 718794 | 519616 | 67454 | 0 | increased only in acidic conditions | 8301.55 | 16518.6 | 8600.5 | 15510.2 | 9334.79 | 16326.2 | 12602.5 | Band intensity Monomer [2, 6]: 14640.4

Reference: publication PMC7562955 (Nature Communications, 2020)
